Test results reported in US20220340665A1, “INHIBITOR AGAINST EXPRESSION OF IMMUNE CHECKPOINT MOLECULE” (RENASCIENCE INC., priority 2019, published 2022).

Target: human PAI-1 (Homo sapiens, UniProt P05121)
Test: PAI-1 inhibitory activity, t-PA with Spectrozyme t-PA chromogenic substrate (Reference Experimental Example 2)
Type: biochemical
Parameters: purchased Molecular Innovations, Inc. (USA)
Description: Subsequently, human-derived tissue plasminogen activator (t-PA) (manufactured by American Diagnostica, Inc. (USA); the same applies hereinafter) adjusted to 0.05 pmol/μL was added thereto, and the mixture was further incubated at 37° C. for 60 minutes. Then, 0.25 mM of Spectrozyme t-PA synthetic substrate (manufactured by American Diagnostica, Inc. (USA); the same applies hereinafter), which is a chromogenic substrate, was added. […]
Free p-nitroaniline removed from the chromogenic substrate (Spectrozyme t-PA) by t-PA action was measured using a spectrophotometer at an absorbance of 405 nm at 20-minute intervals, for 120 minutes.

[1] = compound 10 μm (head), system without compound after 120 minutes = 100%
[2] = compound 25 μm (head), system without compound after 120 minutes = 100%
[3] = Tables 5 to 7, first value column, head prints no concentration
[4] = Tables 5 to 7, second value column, head prints no concentration

Sequence of human PAI-1 (P05121 24-402): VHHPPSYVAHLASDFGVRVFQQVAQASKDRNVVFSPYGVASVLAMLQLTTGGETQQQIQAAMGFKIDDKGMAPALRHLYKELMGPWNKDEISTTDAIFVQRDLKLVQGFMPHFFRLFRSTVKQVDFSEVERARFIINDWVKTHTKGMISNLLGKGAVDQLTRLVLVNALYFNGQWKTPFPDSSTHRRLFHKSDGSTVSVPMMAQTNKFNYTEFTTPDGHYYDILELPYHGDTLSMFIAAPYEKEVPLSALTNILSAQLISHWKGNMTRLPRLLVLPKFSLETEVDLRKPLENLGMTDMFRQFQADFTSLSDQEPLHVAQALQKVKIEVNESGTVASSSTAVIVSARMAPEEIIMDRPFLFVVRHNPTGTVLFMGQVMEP

PAI-1 activity % [1] | PAI-1 activity % [2] | PAI-1 activity % [3] | PAI-1 activity % [4] | Compound
 |  | 30.5% |  | O=C(COC(c1ccccc1)c1ccccc1)Nc1ccc(Cl)cc1C(=O)O [Example 76, 5-chloro-2-(((diphenylmethoxy)acetyl)amino)benzoic acid]
 |  | 7.4% | 3.5% | O=C(C=Cc1ccc(C23CC4CC(CC(C4)C2)C3)cc1)Nc1ccc(Cl)cc1C(=O)O [Example 94, 2-((3-(4-(adamantan-1-yl)phenyl)prop-2-enoyl)amino)-5-chlorobenzoic acid]
 |  | 6.7% | 100.0% | O=C([O-])c1cc(Cl)ccc1NC(=O)c1cc(-c2ccccc2)nc2ccccc12.[Na+] [Example 107, 5-chloro-2-(((2-phenylquinolin-4-yl)carbonyl)amino)sodium benzoate]
16.1% | 81.4% |  |  | CC(C)(C)c1cccc(OCC(=O)Nc2ccc(Cl)cc2C(=O)O)c1 [Example 18, 2-(((3-tert-butylphenoxy)acetyl)amino)-5-chlorobenzoic acid]
 |  | 0.7% | 92.1% | O=C(Nc1ccc(Cl)cc1C(=O)[O-])c1ccc(OCc2ccc3ccccc3n2)cc1.[Na+] [Example 100, 5-chloro-2-(((4-(quinolin-2-ylmethoxy)phenyl)carbonyl)amino)sodium benzoate]
 | 36.6% |  |  | O=C(Nc1ccc(Cl)cc1C(=O)O)C(=O)c1c[nH]c2ccc(OCc3ccccc3)cc12 [Example 57, 2-(((5-(benzyloxy)-1H-indol-3-yl)(oxo)acetyl)amino)-5-chlorobenzoic acid]
 |  | 0.2% | 24.7% | O=C(/C=C/c1cccc(-c2cccc3cccnc23)c1)Nc1ccc(Cl)cc1C(=O)[O-].[Na+] [Example 101, 5-chloro-2-(((2E)-3-(3-(quinolin-8-yl)phenyl)prop-2-enoyl)amino)sodium benzoate]
0.4% | 71.7% |  |  | O=C(Nc1ccc(Cl)cc1C(=O)[O-])c1cccc(-c2cccc3ncccc23)c1.[Na+] [Example 65, 5-chloro-2-(((3-(quinolin-50yl)phenyl)carbonyl)amino)sodium benzoate]
 | 96.8% |  |  | O=C(O)c1cc(Cl)ccc1NC(=O)C1(c2cccc(-c3ccoc3)c2)CC1 [Example 35, 5-chloro-2-(((1-(3-(furan-3-yl)phenyl)cyclopropyl)carbonyl)amino)benzoic acid]
0.6% | 90.4% |  |  | O=C(Nc1ccc(Cl)cc1C(=O)[O-])c1ccc(-c2cccc3cccnc23)cc1.[Na+] [Example 67, 5-chloro-2-(((4-(quinolin-8-yl)phenyl)carbonyl)amino)sodium benzoate]
36.9% |  |  |  | COc1ccccc1-c1cccc(OCC(=O)Nc2ccc(Cl)cc2C(=O)O)c1 [Example 61, 5-chloro-2-((((2'-methoxybiphenyl-3-yl)oxy)acetyl)amino)benzoic acid]
 |  | 0.3% | 87.8% | O=C(Nc1ccc(Cl)cc1C(=O)[O-])c1cccc(OCc2ccc3ccccc3n2)c1.[Na+] [Example 99, 5-chloro-2-(((3-(quinolin-2-ylmethoxy)phenyl)carbonyl)amino)sodium benzoate]
0.3% | 21.3% |  |  | O=C(Nc1ccc(Cl)cc1C(=O)[O-])c1cccc(-c2cnc3ccccc3c2)c1.[Na+] [Example 63, 5-chloro-2-(((3-(quinolin-3-yl)phenyl)carbonyl)amino)sodium benzoate]
 | 94.6% |  |  | O=C(O)c1cc(Cl)ccc1NC(=O)c1cccc2c1Cc1ccccc1-2 [Example 38, 5-chloro-2-((9H-fluoren-1-ylcarbonyl)amino)benzoic acid]
28.5% | 100.3% |  |  | O=C(Nc1ccc(Cl)cc1C(=O)[O-])c1cccc(-c2ccncc2)c1.[Na+] [Example 8, 5-chloro-2-(((3-(pyridin-4-yl)phenyl)carbonyl)amino)sodium benzoate]
 |  | 34.2% | 92.3% | O=C(/C=C/c1cccc(-c2cccnc2)c1)Nc1ccc(Cl)cc1C(=O)[O-].[Na+] [Example 103, 5-chloro-2-(((2E)-3-[3-(pyridin-3-yl)phenyl]prop-2-enoyl)amino)sodium benzoate]
0.7% | 74.3% |  |  | O=C(Nc1ccc(Cl)cc1C(=O)[O-])c1cccc(-c2cncc3ccccc23)c1.[Na+] [Example 64, 5-chloro-2-(((3-(isoquinolin-4-yl)phenyl)carbonyl)amino)sodium benzoate]
0.0% | 0.0% |  |  | O=C(Nc1ccc(Cl)cc1C(=O)O)c1cccc(-c2cccc3ccccc23)c1 [Example 58, 5-chloro-2-(((3-(naphthalen-1-yl)phenyl)carbonyl)amino)benzoic acid]
0.1% | 22.6% |  |  | O=C(Nc1ccc(Cl)cc1C(=O)[O-])c1cccc(-c2cccc3cnccc23)c1.[Na+] [Example 66]
21.9% | 77.4% |  |  | CC(C)(C)c1cccc(OCC(=O)Nc2ccc(Cl)cc2C(=O)O)c1 [Example 16, 2-(((3-tert-butylphenoxy)acetyl)amino)-5-chlorobenzioc acid]

Second part, the compound before the results:

Compound | PAI-1 activity % [1] | PAI-1 activity % [2] | PAI-1 activity % [3] | PAI-1 activity % [4]
O=C(Nc1ccc(Cl)cc1C(=O)O)c1ccc(C2=CCOCC2)cc1 [Example 32, 5-chloro-2-(((4'-(3,6-dihydro-2H-pyran-4-yl)phenyl)carbonyl)amino)benzoic acid] | 1.7% | 94.4% |  | 
Cc1ccc(C23CC4CC(CC(C(=O)Nc5ccc(Cl)cc5C(=O)O)(C4)C2)C3)cc1 [Example 86] |  |  | 1.4% | 63.5%
Cn1c(C(=O)Nc2ccc(Cl)cc2C(=O)O)cc2cc(Br)ccc21 [Example 23] | 1.8% | 97.3% |  | 
O=C(CN1CCN(C(c2ccccc2)c2ccccc2)CC1)Nc1ccc(Cl)cc1C(=O)O [Example 77, 5-chloro-2-(((4-(diphenylmethyl)piperazin-1-yl)acetyl)amino)benzoic acid] |  |  |  | 69.6%
O=C(/C=C(/Cl)C1CCCCC1)Nc1ccc(Cl)cc1C(=O)O [Example 91, 5-chloro-2-(((2E)-3-chloro-3-cyclohexlprop-2-encyl)amino)benzoic acid] |  |  | 16.7% | 96.9%
O=C(COc1cccc(C23CC4CC(CC(C4)C2)C3)c1)Nc1ccc(Cl)cc1C(=O)O [Example 30] | 1.3% | 19.3% |  | 
2-((biphenyl-4-ylcarbonoyl)amino)-5-chlorobenzoic acid [Example 71] |  |  | 2.1% | 39.6%
O=C(Nc1ccc(C2=CCCCC2)cc1C(=O)O)c1ccc(C2CCCCC2)cc1 [Example 81, 5-(cyclohex-1-en-1-yl)-2-(((4-cylcohexylphenyl)carbonyl)amino)benzoic acid] |  |  | 0.0% | 1.0%
O=C(Nc1ccc(Cl)cc1C(=O)O)c1ccc(C2=CCOCC2)cc1 [Example 34, 5-chloro-2-(((4-(3,6-dihyrdo-2H-pyran-4-yl)phenyl)carbonyl)amino)benzoic acid] | 45.1% | 97.1% |  | 
O=C(Nc1ccc(CCC2CCCCC2)cc1C(=O)O)c1ccc(C2CCCCC2)cc1 [Example 93, 5-(2-cyclohexylethyl)2-(((4-cyclohexylphenyl)carbonyl)amino)beznoic acid] |  |  | 0.0% | 0.0%
O=C(COc1ccc(C2CCCCC2)cc1)Nc1ccc(Cl)cc1C(=O)O [Existing compound 3, 5-chloro-2-(((4-cyclohexylphenoxy)aceytl)amino)benzoic acid, reference compound] |  |  | 0.3% | 36.3%
5-chloro-2-(((4-(methylcyclohexyl)phenyl)carbonyl)amino)benzoic acid [Example 98] |  |  | 0.1% | 41.5%
5-chloro-2-((3-(3-(furan-3-yl)phenyl)propenoyl)amino)benzoic acid [Example 36] | 3.7% | 95.7% |  | 
O=C(O)c1cc(Cl)ccc1NC(=O)C1CCCN(C(=O)c2cccc(-c3ccccc3)c2)C1 (stereo not drawn) [Example 31, 2-(((1-(biphenyl-3-ylcarbonyl)pipendin-3-yl)carbonyl)amino)-5-chlorobenzoic acid] | 20.2% | 88.0% |  | 
O=C(Nc1ccc(Cl)cc1C(=O)O)c1cccc(C2=CCCCC2)c1 [Example 79, 5-chloro-2-(((3-(cyclohex-1-en-1yl-)phenyl)carbonyl)amino)benzoic acid] |  |  | 1.6% | 44.5%
O=C(COc1ccc(C23CC4CC(CC(C4)C2)C3)cc1)Nc1ccc(Cl)cc1C(=O)O [Example 21] | 0.3% | 10.0% |  | 
O=C(COc1ccccc1-c1ccccc1)Nc1ccc(-c2ccoc2)cc1C(=O)O [Example 46, 2-(((biphenyl-2-yloxy)acetyl)amino)-5-(furan-3-yl)benzoic acid] | 0.4% | 69.9% |  | 
C#Cc1ccc(NC(=O)c2ccc(C3CCCCC3)cc2)c(C(=O)O)c1 [Example 95, 2-(((4-cyclohexylphenyl)carbonyl)amino)-5-ethynlbenzoic acid] |  |  | 0.3% | 80.5%
CC(C)(Oc1cccc(-c2ccoc2)c1)C(=O)Nc1ccc(Cl)cc1C(=O)O [Example 44, 5-chloro-2-((2-(3-(furan-3-yl)phenoxy)-2-methylpropenoyl)amino)benzoic acid] | 20.4% | 97.6% |  | 
